Data as given in PubChem BioAssay (NCI).
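Where inhibition never reached the appropriate level, the endpoint shown equals the highest concentration tested. Otherwise, values were interpolated linearly from a five-concentration, 48-hour dose response in 96-well plates. TGI denotes the concentration required for complete inhibition of growth.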

Columns and labels:
Assay in all cases: NCI tumour cell line growth inhibition, 48 h
[1] = test system: SK-OV-3 ovarian
[2] = test system: CCRF-CEM leukemia
[3] = test system: T-47D breast
[4] = test system: MDA-MB-435
[5] = test system: K-562 leukemia
[6] = test system: NCI-H460 lung
[7] = test system: MOLT-4 leukemia
[8] = test system: SF-268 CNS
[9] = test system: PC-3 prostate
[10] = test system: ACHN renal
[11] = test system: CAKI-1 renal
[12] = test system: UO-31 renal
[13] = test system: SF-295 CNS
[14] = test system: U251 CNS
[15] = test system: UACC-62 melanoma
[16] = test system: HOP-62 NSCLC
[17] = test system: MCF7 breast
[18] = test system: SK-MEL-2 melanoma
[19] = test system: A498 renal
[20] = test system: MDA-MB-231 breast
[21] = test system: DU-145 prostate
[22] = test system: HOP-92 NSCLC
[23] = test system: KM12 colon
[24] = test system: TK-10 renal
[25] = test system: M14 melanoma
[26] = test system: SF-539 CNS
[27] = test system: BT-549 breast
[28] = test system: SN12C renal
[29] = test system: MALME-3M melanoma
[30] = test system: RXF 393 renal
[31] = test system: HCC-2998 colon
[32] = test system: SK-MEL-5 melanoma
[33] = test system: OVCAR-8 ovarian
[34] = test system: EKVX NSCLC
[35] = test system: LOX IMVI melanoma
[36] = test system: UACC-257 melanoma
[37] = test system: HS 578T breast
[38] = test system: OVCAR-3 ovarian
[39] = test system: HL-60(TB) leukemia
[40] = test system: NCI/ADR-RES ovarian
[41] = test system: OVCAR-5 ovarian
[42] = test system: OVCAR-4 ovarian
[43] = test system: SNB-75 CNS
[44] = test system: HCT-116 colon
[45] = test system: HT29 colon
[46] = test system: HCT-15 colon
[47] = test system: SW-620 colon
[48] = test system: MDA-N
[49] = test system: IGROV1 ovarian
[50] = test system: SR leukemia
[51] = test system: SK-MEL-28 melanoma
[52] = test system: 786-0 renal
[53] = test system: A549 NSCLC
[54] = test system: NCI-H23 lung
[55] = test system: COLO 205 colon
[56] = test system: RPMI-8226 leukemia
[57] = test system: NCI-H226 lung
[58] = test system: NCI-H522 lung
[59] = test system: SNB-19 CNS

CC(=O)Oc1ccc2c(c1)CC[C@@H]1C2[C@@H](O[N+](=O)[O-])C[C@@]2(C)C1CC[C@@H]2O (some centres undefined)
TGI [1]: > 100 µM | TGI [2]: > 83.2 µM | TGI [3]: > 100 µM | TGI [4]: 56.2 µM | TGI [5]: 72.1 µM | TGI [6]: > 89.1 µM | TGI [7]: > 85.8 µM | TGI [8]: > 83 µM | TGI [9]: > 100 µM | TGI [10]: > 100 µM | TGI [11]: > 100 µM | TGI [12]: > 100 µM | TGI [13]: > 100 µM | TGI [14]: > 100 µM | TGI [15]: > 100 µM | TGI [16]: > 60.5 µM | TGI [17]: > 90.3 µM | TGI [18]: > 100 µM | TGI [19]: 72.5 µM | TGI [20]: > 100 µM | TGI [21]: > 87.2 µM | TGI [22]: > 100 µM | TGI [23]: > 100 µM | TGI [24]: > 100 µM | TGI [25]: > 100 µM | TGI [26]: 72.6 µM | TGI [27]: > 100 µM | TGI [28]: > 100 µM | TGI [29]: > 100 µM | TGI [30]: > 100 µM | TGI [31]: 46.2 µM | TGI [32]: > 100 µM | TGI [33]: > 86.7 µM | TGI [34]: 93.6 µM | TGI [35]: > 81.2 µM | TGI [36]: > 100 µM | TGI [37]: 51.1 µM | TGI [38]: > 86.9 µM | TGI [39]: 34.4 µM | TGI [40]: 97.3 µM | TGI [41]: > 71.8 µM | TGI [42]: > 100 µM | TGI [43]: > 85.2 µM | TGI [44]: > 100 µM | TGI [45]: > 76.6 µM | TGI [46]: > 100 µM | TGI [47]: > 100 µM | TGI [48]: 27.9 µM | TGI [49]: > 100 µM | TGI [50]: > 88.1 µM | TGI [51]: > 100 µM | TGI [52]: > 100 µM | TGI [53]: > 100 µM | TGI [54]: > 100 µM | TGI [55]: > 88.7 µM | TGI [56]: 69.7 µM | TGI [57]: > 100 µM | TGI [58]: > 86.7 µM | TGI [59]: > 100 µM

CN(C)c1ccc(C(c2ccc(N(C)C)cc2)c2ccc([N+](=O)[O-])cc2)cc1
TGI [1]: > 100 µM | TGI [2]: > 100 µM | TGI [3]: > 100 µM | TGI [4]: > 100 µM | TGI [5]: > 100 µM | TGI [6]: > 100 µM | TGI [7]: > 100 µM | TGI [8]: > 100 µM | TGI [9]: > 100 µM | TGI [10]: > 100 µM | TGI [11]: > 100 µM | TGI [12]: > 100 µM | TGI [13]: > 100 µM | TGI [14]: > 100 µM | TGI [15]: > 100 µM | TGI [16]: > 100 µM | TGI [17]: > 100 µM | TGI [18]: > 100 µM | TGI [19]: > 100 µM | TGI [20]: > 100 µM | TGI [21]: > 100 µM | TGI [22]: > 100 µM | TGI [23]: > 100 µM | TGI [24]: > 100 µM | TGI [25]: > 100 µM | TGI [26]: > 100 µM | TGI [27]: > 100 µM | TGI [28]: > 100 µM | TGI [29]: > 100 µM | TGI [30]: > 100 µM | TGI [31]: > 100 µM | TGI [32]: > 100 µM | TGI [33]: > 100 µM | TGI [34]: > 100 µM | TGI [35]: > 100 µM | TGI [36]: > 100 µM | TGI [37]: > 100 µM | TGI [38]: > 100 µM | TGI [39]: > 100 µM | TGI [40]: > 100 µM | TGI [41]: > 100 µM | TGI [42]: > 100 µM | TGI [44]: > 100 µM | TGI [45]: > 100 µM | TGI [46]: > 100 µM | TGI [47]: > 100 µM | TGI [48]: > 100 µM | TGI [49]: > 100 µM | TGI [50]: > 100 µM | TGI [51]: > 100 µM | TGI [52]: > 100 µM | TGI [53]: > 100 µM | TGI [54]: > 100 µM | TGI [55]: > 100 µM | TGI [56]: > 100 µM | TGI [57]: > 100 µM | TGI [58]: > 100 µM | TGI [59]: > 100 µM

O=C1/C(=C/c2cccs2)N=C(c2ccccc2)N1C1Nc2cc3c(cc2S1)NC(N1C(=O)/C(=C/c2cccs2)N=C1c1ccccc1)S3 (centres undefined)
TGI [3]: > 100 µM | TGI [4]: 42.6 µM | TGI [5]: > 100 µM | TGI [6]: > 100 µM | TGI [7]: 59.6 µM | TGI [8]: 47.5 µM | TGI [9]: > 100 µM | TGI [10]: > 100 µM | TGI [11]: > 100 µM | TGI [12]: > 100 µM | TGI [13]: > 100 µM | TGI [14]: 32.7 µM | TGI [16]: > 100 µM | TGI [17]: > 100 µM | TGI [18]: 36.9 µM | TGI [19]: > 100 µM | TGI [20]: > 100 µM | TGI [21]: > 100 µM | TGI [22]: > 100 µM | TGI [23]: > 100 µM | TGI [24]: > 100 µM | TGI [25]: 37.1 µM | TGI [26]: 31.3 µM | TGI [27]: 35.1 µM | TGI [30]: 78.8 µM | TGI [31]: 43.3 µM | TGI [32]: 37.4 µM | TGI [33]: 47.2 µM | TGI [34]: 43.6 µM | TGI [35]: 33.7 µM | TGI [36]: > 100 µM | TGI [37]: 61.5 µM | TGI [38]: > 100 µM | TGI [39]: 39.6 µM | TGI [40]: 33.6 µM | TGI [41]: 75 µM | TGI [42]: 96.9 µM | TGI [43]: 83.2 µM | TGI [44]: 56 µM | TGI [45]: > 100 µM | TGI [46]: 34.7 µM | TGI [47]: > 100 µM | TGI [48]: 41 µM | TGI [49]: > 100 µM | TGI [50]: 31 µM | TGI [51]: > 100 µM | TGI [52]: 43.1 µM | TGI [53]: > 100 µM | TGI [54]: 43.6 µM | TGI [56]: 51.7 µM | TGI [57]: 48.3 µM | TGI [58]: 31.4 µM
